In article PMC7645381, “Development and application of a high-throughput screening assay for identification of small molecule inhibitors of the P. falciparum reticulocyte binding-like homologue 5 protein” (International Journal for Parasitology: Drugs and Drug …, 2020):
Like-named read-outs stand apart in the source and are kept apart here.

Tests used:
[1] = test system: P. falciparum 3D7 parasites; test: P. falciparum parasite viability assay (LDH); assay type: cell-based; details: LDH activity, 10-point dilution series, 72 h, read-out: P. falciparum 3D7 EC50
Method: A modified version of the lactate dehydrogenase (LDH) assay described by [Gamo et al. […] Compounds were pre-dispensed in 384-well plates, RPMI/Albumax growth media was added, and P. falciparum inoculated. Plates were incubated for 72 h and then frozen at −80 °C overnight. LDH activity was quantified with the modified cofactor 3-acetylpyridine adenine dinucleotide (APAD) (Sigma Aldrich) by measuring absorbance of the tetrazolium indicator nitro blue tetrazolium (NBT) (Sigma Aldrich) at 650 nm. Parasite conditions: […] Growth inhibition assay: […] Intermediate compound dilution plates were prepared by dispensing 5 μL from each well of the compound master plate into 11.5 μL of RPMI/Albumax growth media. Duplicate assay plates (384-well) were then prepared by dispensing 0.5 μL of compound from the intermediate dilution plates into 9.5 μL of RPMI/Albumax growth media. […] The final DMSO concentration was 0.1% (to limit toxicity to parasites). […] Evaluation of parasite growth measuring lactate dehydrogenase (LDH) activity: After 72 h of incubation, plates were frozen at −80 °C overnight and then thawed at room temperature for at least 4 h. […] Plates were shaken to ensure mixing and absorbance at 650 nm was monitored using a PerkinElmer Envision plate reader after 30 min of incubation at room temperature. Data were normalised to percent growth inhibition using positive and negative controls and analyzed using TIBCO Spotfire software.

[2] = target: T1, P. falciparum Rh5 (Rh5 – basigin interaction) (Plasmodium falciparum, UniProt Q8IFM5); test: biochemical; parameters: AlphaScreen of Rh5 - His-tagged basigin interaction with anti-Rh5 mAb beads; inhibition of luminescence signal; details: Batch Reference=01; confirmation screen, duplicate
T1 sequence (Q8IFM5 24-526): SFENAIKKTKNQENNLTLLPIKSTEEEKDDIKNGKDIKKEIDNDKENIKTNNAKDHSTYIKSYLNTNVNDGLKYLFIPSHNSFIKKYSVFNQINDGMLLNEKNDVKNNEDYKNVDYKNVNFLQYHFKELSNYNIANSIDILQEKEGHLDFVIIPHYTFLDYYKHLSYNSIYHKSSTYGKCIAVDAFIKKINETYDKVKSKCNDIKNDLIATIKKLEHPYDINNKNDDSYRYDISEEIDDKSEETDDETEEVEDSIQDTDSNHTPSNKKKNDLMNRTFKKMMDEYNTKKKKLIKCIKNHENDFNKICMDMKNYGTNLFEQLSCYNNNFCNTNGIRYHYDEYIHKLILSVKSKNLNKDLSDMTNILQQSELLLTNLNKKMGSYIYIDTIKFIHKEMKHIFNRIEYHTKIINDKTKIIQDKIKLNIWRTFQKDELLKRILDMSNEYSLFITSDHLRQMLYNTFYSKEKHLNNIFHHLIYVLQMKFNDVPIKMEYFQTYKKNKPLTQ
Method: Using the Combi-multidrop, 5 μL of Rh5 stock solution (200 nM prepared in assay buffer) was added to columns 1–24 of the 384-well assay plate (Greiner 384-well white, low binding plate, #784904, Bioone). The PerkinElmer Janus automated dispensing system was then employed to transfer, via the pin-tool, 2 × 100 nL of the compound stock DMSO solution from the compound master plate to the assay plate. The plate was sealed and incubated for 30 min at room temperature. Using a Combi-multidrop, 5 μL of hexa-histidine tagged basigin stock solution (80 nM prepared in assay buffer) was then added to columns 1–23 and 5 μL assay buffer to column 24 of the 384-well assay plate. The plate was sealed again and incubated for 30 min at room temperature. A solution of AlphaScreen donor and acceptor beads (20 μg/mL prepared in assay buffer) plus anti-Rh5 mAb solution (2 μg/mL prepared in assay buffer) was prepared in assay buffer under subdued lighting. Using the Combi-multidrop, 10 μL of this solution was added to every well of the assay plate under subdued lighting. The plate was sealed with foil (plate max) and incubated at room temperature for 1 h. The assay plate was then analysed on the PerkinElmer Envision 2103 Multilabel Plate Reader (Ex 680, Em 520–620 nm). […] Historically, PPIs are notoriously difficult to target with small molecules. To enhance the likelihood of identifying an inhibitor of the Rh5 - basigin interaction the primary screen was conducted at a compound concentration of 20 μM. A 20 μM screening concentration is considered high, when compared to the commonly used primary screen concentrations of approximately 1–10 μM. […] To do this, a two-phase hit confirmation and counterscreen process was undertaken (Fig. 1). […] Both assays were undertaken at 10 μM in duplicate. The counterscreen assay was conducted using AlphaScreen TruHits.

DCLK1 = target: T2, DCLK1 (Homo sapiens, UniProt O15075); test: Differential scanning fluorimetry of control protein DCLK1; assay type: binding; details: DSF
T2 construct: made in house
T2 sequence (O15075 372-649 limits assumed): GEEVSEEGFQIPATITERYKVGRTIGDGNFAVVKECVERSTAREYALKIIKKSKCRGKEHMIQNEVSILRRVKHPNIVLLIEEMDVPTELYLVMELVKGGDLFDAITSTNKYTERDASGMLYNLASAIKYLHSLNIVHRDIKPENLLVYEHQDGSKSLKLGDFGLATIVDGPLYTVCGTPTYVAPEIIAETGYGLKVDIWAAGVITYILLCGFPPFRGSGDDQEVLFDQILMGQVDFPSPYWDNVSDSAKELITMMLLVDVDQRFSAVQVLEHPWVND
Method: Doublecortin-like kinase domain 1 (DCLK1) used as a control protein in differential scanning fluorimetry experiments and was recombinantly expressed and purified according to the previously described protocol ([Patel et al., 2016]).
(§1) Differential scanning fluorimetry assays were performed as described previously ([Murphy et al., 2013], [2014a], [2014b]) using a Rotor-Gene Q PCR. Briefly, purified PfRh5 was diluted in 20 mM Tris pH 8.0, 150 mM NaCl to achieve 10 μg per reaction and assayed with the appropriate concentration of inhibitor in a total reaction volume of 25 μL. SYPRO Orange (Molecular Probes, CA) was used as a fluorescence probe and detected at 530 nm. Compounds were titrated at final concentrations ranging from 5 μM to 80 μM final. Data was transformed and plotted using GraphPad Prism. Shown data are representative means of two technical experiments.

PfRh5 = PfRh5 (Plasmodium falciparum, UniProt Q8IFM5); test: Differential scanning fluorimetry of Rh5; assay type: binding, P. falciparum; details: DSF
Chain of PfRh5 (Q8IFM5 24-526): as the sequence (Q8IFM5 24-526) above
Method: as §1

[3] = Solubility in SPR running buffer; assay type: physicochemical
[4] = target: T1, P. falciparum Rh5 (Rh5 – basigin interaction); test: biochemical; assay type: binding

**Q.** Which results are given for `O=C(Nc1cccc2c(=O)cc(-c3nnn[nH]3)oc12)c1ccc(OCCCCc2ccccc2)cc1` [pranlukast]?
**A.** EC50 [1]: 40 µM; EC50 ([1]; Plasmodium falciparum, 3D7, 72 h): 39 µM; inhibition at 10 µM [2]: 69%; effect on Tm of DCLK1 (DCLK1; concentration up to 20 μM): did not have a significant impact on the Tm of DCLK1; effect on Tm of DCLK1 (DCLK1; high concentration (>40 μM)): markedly lower Tm; effect on Tm of Rh5 (PfRh5; concentrations of 0–20 μM): dose dependent increase in the Tm of Rh5; effect on Tm of Rh5 (PfRh5; high concentration (>40 μM)): markedly lower Tm; solubility in the SPR running buffer [3]: limited solubility; IC50 [4]: 12 µM
